One series in a line: Stability in mouse serum. It is filed as in vitro ADME. The text has this:
TABLE 1 Pharmacokinetic parameters of PROTAC 2. | column: Stability (hours) ^b / m‐serum

Series [1] has as its system Lmna^G609G/G609G mouse fibroblasts. In words: Cellular uptake by fluorescence microscopy. Type of series: cell-based. As to conditions: intrinsic fluorescence, 5 μM. On the procedure: Supporting Figure S4. Cellular internalization of compounds 2 and 9. Live progeroid
LmnaG609G/G609G mouse fibroblasts were incubated with 5 μM of indicated compound and
images were taken every 5 minutes in a confocal fluorescence microscopy Olympus lx83
(lexc = 420 nm; lem = 530 nm). Shown image corresponds to 100 min incubation. Scale […]

The subject of series [2] is Lmna^G609G/G609G fibroblasts. In words: Immunocytofluorescence (Ki‐67, lamin A/C) in mouse progeroid cells. It is filed as cell-based. As to conditions: 5 µM. The procedure: (§1) Confocal fluorescence microscopy images are representative of 2 independent experiments. […] Representative cropped immunoblots are shown. […] MW, molecular weight (in kDa) markers. (C) PROTAC 2 decreases senescence‐associated β‐galactosidase (SA‐βgal) activity, interleukin (IL) 1α and p16 senescent markers. Lmna^G609G/G609G (G609G) or Lmna^+/+ (WT) fibroblasts were incubated with vehicle or compound 2 (5 µM). […] Data were analysed using one‐way ANOVA followed by Dunnett's post–hoc test. ^*, p < 0.05; ^**, p < 0.01, ^***, p < 0.001, ^****, p < 0.0001 vs G609G cells. […]
compound exposure. […]
TBS-T and proteins were visualized by quimioluminiscence (GE Healthcare […]
For immunocytofluorescence studies, mouse or human progeroid cells previously incubated with compound of interest or DMSO were seeded at a density of […] or 1.5 x 10^4 cells/well over 12 mm diameter slide covers respectively in a 12-well plate and were incubated for 24 h at 37 ᵒC with compound of interest. Cells were fixed with 4% formaldehyde (Ki67, pH2AX) or cold methanol (Lamin A/C, H3K9Me3) from Sigma-Aldrich during 20 min and permeabilized with PBS containing 0.2% Triton X-100 (PBS-T, Sigma-Aldrich). Then, cells were blocked with TBS 2% BSA during 30 min at rt, followed by incubation o.n. with anti-lamin A/C (Santa Cruz Biotechnology, SC-376248, […]
at 4 °C. After that, cells were washed with TBS (1x) and incubated in absence of light for 1 h with fluorescent goat anti-mouse (1:500, Alexa Fluor 488, Life Technologies) diluted in TBS with 2% BSA. Finally, cells were washed with TBS (2x) and the slide cover was carefully mounted with Immumount (Thermo Scientific). The visualization was carried out using confocal microscopy (Olympus IX83) equipped with a 40X oil immersion lens and the appropriate excitation and emission filters at the microscopy UCM facilities. […]
7. Senescence-associated (SA) β-galactosidase activity. […]

Series [3] deals with Lmna^G609G/G609G fibroblasts. The experiment in a line: RT-qPCR of senescence markers in mouse progeroid cells. Type of series: cell-based. As to conditions: 5 µM. On the procedure:
as §1
ferrocyanide, 0.6 mL 5 M NaCl, 0.2 mL 0.2 M MgCl2, (all from Sigma Aldrich) and 6.2 mL of deionized water in a total volume of 20 mL] in the dark in a humidified incubator at 37 °C for 24 h without CO2 supply. Then, an equal volume of the supernatant of each well was transferred to a new 96-well plate for fluorescence measurement. The resultant production of fluorescein was measured using a FluoStar Optima instrument (BMG Labtech) with an excitation of 485 nm and emission at 535 nm. […]
Total RNA was extracted by RNAeasy Mini Kit (Qiagen) according to the manufacturer instructions and subsequently quantified using the NanoPhotometer N60 (Implen). […] Quantitative real-time PCR was run in the QuantStudio 7FLEX (Applied Biosystems) system and results were normalized according to β-actin quantification. […]
(Real-time PCR tracks product formation cycle by cycle.)

Take `CC1(C)Oc2cc3oc(=O)ccc3cc2C[C@@H]1OC(=O)CCCCCNc1cccc2c1C(=O)N(C1CCC(=O)NC1=O)C2=O` (stereo partly shown) [compound 2]: the “Stability (hours) m‐serum” value in the series “Stability in mouse serum” turned out to be 0.28 ± 0.02 h. Moreover, the cellular uptake entry in series [1] is “confirmed”. Besides, in series [2], the “cell proliferation (Ki‐67)” value is “significantly increases cell proliferation”, the “nuclear cell membrane thickness” value is “decreases nuclear cell membrane thickness” and the “progerin accumulation in the nuclear membrane” value is on record as “decreases progerin accumulation in the nuclear membrane”. For the same molecule, in series [3], the “interleukin (IL) 1α senescent marker” value was “significantly reduced” and the p16 senescent marker result was “significantly reduced”.

The record behind these values is PMC13252604, “First Generation Proteolysis Targeting Chimeras (PROTACs) for the Treatment of Progeria” (Advanced Science, 2026).
